According to patent EP4631490A1, “ACTIVATOR AND SKIN CONDITION IMPROVING AGENT” (Nippon Shokubai Co., Ltd., priority 2022, dated 2024):

Columns and labels:
[1] = Foam property evaluation (dynamic foam analyzer); type: physicochemical; conditions: 0.5% aqueous solution, pH 8.0, water hardness 20°dH, 25°C; for Creaminess of foam Bubble area after 20 seconds: 20 seconds after stirring was stopped; for Creaminess of foam Bubble area after 600 seconds: 600 seconds after stirring was stopped; for Foam retention evaluation Foam change rate: smaller = better foam retention
Method: Thereafter, an average bubble area of foams was determined based on the images, and creaminess (foamability) of the foams was evaluated according to the following criteria. Note that the creaminess of the foams is characterized by having a small final bubble diameter (measured as average bubble area). The foams generated from the aqueous solutions containing the STL C14, the STL C16, or the STL C18 had small bubble areas, and thus it was considered that creamy foams could be formed. • ⊚ (good): The bubble area was 20000 µm^2 or less. • ∘ (passed): The bubble area was 20001 µm^2 or more and 30000 µm^2 or less. • Δ (slightly poor): The bubble area was 30001 µm^2 or more and 40000 µm^2 or less. • × (poor): The bubble area was 40001 µm^2 or more. A foam change rate was calculated using the following equation. It can be determined that the smaller the foam change rate is, the better the foam retention is, in other words, the better the foaming durability is. […]

[2] = Measurement of critical micelle concentration (surface tension, platinum suspension plate method); type: physicochemical; conditions: critical micelle concentration from surface tension measurement
Method: A highly functional surface tensiometer (DY-500 (available from Kyowa Interface Science Co., Ltd.) was used to perform surface tension measurement by a platinum suspension plate method, and critical micelle concentrations (CMCs) of the STL C14, the STL C16, the STL C18, sodium lauryl sulfate, sodium deoxycholate, and sodium caprylate were calculated in accordance with a common method. The results are described in Table 4.

L929 mouse fibroblasts = conditions: values of L. Vian et al., Toxicol in vitro, 9(2), 185-190, 1995; cited from earlier work
Zein powder = assay: Protein denaturation test (dissolution of Zein powder); conditions: 0.5% aqueous solution, pH 8.0; 0.03 g Zein powder in 10 mL; room temperature, 2 hours; index of skin irritation
Method: 0.03 g of Zein powder (FUJIFILM Wako Pure Chemical Corporation) was added to the aqueous solutions of the STL. After stirring at room temperature and 1200 rpm for 2 hours, the Zein powder-added solutions were transferred to centrifuge tubes, respectively, and centrifuged at 6200 rpm for 10 seconds to precipitate and remove undissolved zein powder. The protein concentrations in the solutions were measured using a microvolume spectrophotometer NanoDrop (NanoDrop Technologies).
The protein denaturation test was performed in the same manner using sodium lauryl sulfate, sodium deoxycholate, and sodium caprylate.

## CCCCCCCCCCCCOS(=O)(=O)[O-].[Na+] [Sodium lauryl sulfate, sodium lauryl sulfate]
[1]
  Creaminess of foam Bubble area after 20 seconds: ⊚ (⊚ (good): The bubble area was 20000 µm^2 or less.)
  Creaminess of foam Bubble area after 600 seconds: Δ (Δ (slightly poor): The bubble area was 30001 µm^2 or more and 40000 µm^2 or less.)
  Foam retention evaluation Foam change rate: 2.81%
[2]
  Surface activating ability evaluation CMC: 8 mM
L929 mouse fibroblasts
  Cytotoxicity evaluation IC50: 86 ppm

## sodium deoxycholate
[1]
  Creaminess of foam Bubble area after 20 seconds: ⊚ (⊚ (good): The bubble area was 20000 µm^2 or less.)
  Creaminess of foam Bubble area after 600 seconds: × (× (poor): The bubble area was 40001 µm^2 or more.)
  Foam retention evaluation Foam change rate: 2.62%
[2]
  Surface activating ability evaluation CMC: 6 mM
Zein powder
  Protein denaturation ability evaluation Protein dissolution concentration: 430 µg/mL
L929 mouse fibroblasts
  Cytotoxicity evaluation IC50: 90 ppm

## CCCCCCCC(=O)[O-].[Na+] [Sodium caprylate, sodium caprylate]
[1]
  Creaminess of foam Bubble area after 20 seconds: ○
  Creaminess of foam Bubble area after 600 seconds: Δ (Δ (slightly poor): The bubble area was 30001 µm^2 or more and 40000 µm^2 or less.)
  Foam retention evaluation Foam change rate: 1.09%
[2]
  Surface activating ability evaluation CMC: 300 mM
L929 mouse fibroblasts
  Cytotoxicity evaluation IC50: 887 ppm
